In ChEMBL document CHEMBL3792297, “Studies on phenothiazines: New microtubule-interacting compounds with phenothiazine A-ring as potent antineoplastic agents” (Bioorg Med Chem, 2016):

Columns and labels:
Ovis aries = species: Ovis aries; assay: Inhibition of sheep brain tubulin polymerization at 100 uM by DAPI staining-based fluorimetric method
[1] = Inhibition of sheep brain tubulin polymerization by DAPI staining-based fluorimetric method; set-up: species or system Ovis aries
A498 = assay: Growth inhibition of human A498 cells after 48 hrs by SRB assay; assay type: functional; details: A498, 48 h
[2] = Growth inhibition of human DU145 cells after 48 hrs by SRB assay; assay type: functional; details: DU-145, 48 h
[3] = Growth inhibition of human SF295 cells after 48 hrs by SRB assay; assay type: functional; details: SF-295, 48 h
[4] = Growth inhibition of human OVCAR3 cells after 48 hrs by SRB assay; assay type: functional; details: OVCAR-3, 48 h
Tubulin = Tubulin (Bos taurus, UniProt Q6B856+Q862L2+Q862F3); assay: Inhibition of bovine tubulin polymerization preincubated for 30 mins followed by GTP addition measured after 20 mins by spectrophotometric method; assay type: protein assay
[5] = Inhibition of sheep brain tubulin polymerization preincubated for 1 hr measured after 30 mins by turbidimetric-spectrophotometric method; set-up: species or system Ovis aries

Question: Which inhibition (Ovis aries) does the source give for `O=C(c1ccc(OC(F)(F)F)c(F)c1)N1c2ccccc2Sc2ccccc21` here?
Answer: Its inhibition is 48%.

Question: Which results are given for `COc1cc([C@@H]2c3cc4c(cc3C[C@H]3COC(=O)[C@@H]32)OCO4)cc(OC)c1OC` [DESOXYPODOPHYLLOTOXIN]?
Answer: IC50 [1]: 1.8 µM; inhibition (Ovis aries): 100%

Question: Which IC50 [1] does the source give for `COc1ccc(C(=O)N2c3ccccc3Sc3ccccc32)cc1N` here?
Answer: The IC50 was 9.5 µM.

Question: What about the inhibition (Ovis aries) of the same molecule?
Answer: The inhibition was 95%.

Question: Which GI50 (A498) does the source give for `COc1ccc(C(=O)c2cc(OC)c(OC)c(OC)c2)cc1O` [PHENSTATIN] here?
Answer: The GI50 was 0.38 µM.

Question: And the GI50 [2]?
Answer: Its GI50 is 0.034 µM.

Question: What about the GI50 [3] of the same molecule?
Answer: Its GI50 is 0.052 µM.

Question: And the IC50 [1]?
Answer: The IC50 was 3.4 µM.

Question: What about the GI50 [4] of the same molecule?
Answer: Its GI50 is 0.0023 µM.

Question: And the IC50 (Tubulin)?
Answer: The IC50 was 1 µM.

Question: What about the inhibition (Ovis aries) of the same molecule?
Answer: The inhibition was 99%.

Question: With `S=C(c1ccc2c(c1)Sc1ccccc1N2)c1c[nH]c2ccccc12` as the molecule, how does the inhibition (Ovis aries) read?
Answer: The inhibition was 10%.

Question: With `Cc1cc(C(=O)N2c3ccccc3Sc3ccccc32)ccc1Br` as the molecule, how does the inhibition (Ovis aries) read?
Answer: The inhibition was 43%.

Question: With `O=C(c1ccc(F)cc1Cl)N1c2ccccc2Sc2ccccc21` as the molecule, how does the inhibition (Ovis aries) read?
Answer: The inhibition was 44%.

Question: Which inhibition (Ovis aries) does the source give for `COc1ccc(C(=S)N2c3ccccc3Sc3ccccc32)cc1F` here?
Answer: The inhibition was 14%.

Question: Which IC50 [5] does the source give for `C=C(c1ccc(OC)c(O)c1)c1cc(OC)c(OC)c(OC)c1` here?
Answer: Its IC50 is 1.5 µM.
